The species entered for assay [1] is Homo sapiens. Nature of the assay: Inhibition of human MAPK2 assessed as residual activity at 1 uM relative to control.
Assay [2] addresses Proto-oncogene tyrosine-protein kinase receptor Ret (Homo sapiens) (UniProt P07949). Briefly: Inhibition of recombinant human Ret (658 to end residues) assessed as residual activity at 1 uM using KKKSPGEYVNIEFG as substrate measured after 40 mins in presence of [gamma33P]ATP by scintillation counting method relative to control.
Assay [3] deals with Mitogen-activated protein kinase kinase kinase 10 (MLK2). Nature of the assay: Inhibition of recombinant human MLK2 (1 to 499 residues) assessed as residual activity at 1 uM using myelin basic protein as substrate incubated for 40 mins in presence of [gamma-33ATP by scintillation counting based radiometry assay relative to control.
Assay [4] has as its target Calcium/calmodulin-dependent protein kinase type II subunit delta (Homo sapiens) (UniProt Q13557). Nature of the assay: Inhibition of recombinant full length human CaMK2delta assessed as residual activity at 1 uM […] incubated for 40 mins in presence of [gamma-33ATP] by scintillation counting based radiometry assay relative to control.
Assay [5] has as its system Serine/threonine-protein kinase Chk2 (Homo sapiens), O96017 [R145W]. Nature of the assay: Inhibition of recombinant human CHK2 R145W mutant (5 to end residues) assessed as residual activity at 1 uM using KKKVSRSGLYRSPSMPENLNRPR as substrate incubated for 40 mins in presence of [gamma-33ATP] by scintillation counting based radiometry assay relative to control.
For assay [6], the system named is Serine/threonine-protein kinase Nek4 (Homo sapiens), P51957 [P225A]. Nature of the assay: Inhibition of recombinant full-length human NEK4 P225A mutant assessed as residual activity at 1 uM using myelin basic protein as substrate measured after 40 mins in presence of [gamma33P]ATP by scintillation counting method relative to control.
Serine/threonine-protein kinase Nek4 (Homo sapiens), P51957 [P225A], sequence (P51957 whole entry P225A): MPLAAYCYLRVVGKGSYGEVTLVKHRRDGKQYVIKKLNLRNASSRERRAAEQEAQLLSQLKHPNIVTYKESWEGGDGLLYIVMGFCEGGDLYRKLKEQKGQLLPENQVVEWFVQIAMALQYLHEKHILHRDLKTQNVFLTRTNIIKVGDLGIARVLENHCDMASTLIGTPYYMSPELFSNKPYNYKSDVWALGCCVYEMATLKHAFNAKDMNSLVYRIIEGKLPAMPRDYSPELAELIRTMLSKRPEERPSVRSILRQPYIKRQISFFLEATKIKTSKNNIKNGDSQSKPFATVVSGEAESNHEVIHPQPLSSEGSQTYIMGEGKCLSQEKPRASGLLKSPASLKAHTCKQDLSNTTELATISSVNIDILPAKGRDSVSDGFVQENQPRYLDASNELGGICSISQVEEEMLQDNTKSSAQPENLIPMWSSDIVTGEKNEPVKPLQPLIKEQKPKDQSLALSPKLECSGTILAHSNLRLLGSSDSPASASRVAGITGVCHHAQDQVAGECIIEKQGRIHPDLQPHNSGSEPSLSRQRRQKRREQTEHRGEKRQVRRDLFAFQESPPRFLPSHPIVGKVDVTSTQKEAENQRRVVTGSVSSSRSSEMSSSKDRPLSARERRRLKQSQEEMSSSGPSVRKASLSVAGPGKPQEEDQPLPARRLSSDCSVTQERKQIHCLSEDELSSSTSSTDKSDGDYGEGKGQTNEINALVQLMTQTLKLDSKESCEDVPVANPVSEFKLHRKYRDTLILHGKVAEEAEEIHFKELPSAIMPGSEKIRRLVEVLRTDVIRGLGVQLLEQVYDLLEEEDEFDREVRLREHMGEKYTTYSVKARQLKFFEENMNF
The target of assay [7] is PI3K p110 beta/p85 alpha (Homo sapiens) (UniProt P27986+P42338). Briefly: Inhibition of recombinant full-length human PI3K p110beta/p85alpha at 1 uM assessed as residual activity at 1 uM using phosphatidylinositol-4, 5-bisphosphate as substrate measured after 40 mins by fluorescence assay. Type of assay: protein-complex assay.
PI3K p110 beta/p85 alpha (Homo sapiens), sequence (P27986 2-724 limits assumed): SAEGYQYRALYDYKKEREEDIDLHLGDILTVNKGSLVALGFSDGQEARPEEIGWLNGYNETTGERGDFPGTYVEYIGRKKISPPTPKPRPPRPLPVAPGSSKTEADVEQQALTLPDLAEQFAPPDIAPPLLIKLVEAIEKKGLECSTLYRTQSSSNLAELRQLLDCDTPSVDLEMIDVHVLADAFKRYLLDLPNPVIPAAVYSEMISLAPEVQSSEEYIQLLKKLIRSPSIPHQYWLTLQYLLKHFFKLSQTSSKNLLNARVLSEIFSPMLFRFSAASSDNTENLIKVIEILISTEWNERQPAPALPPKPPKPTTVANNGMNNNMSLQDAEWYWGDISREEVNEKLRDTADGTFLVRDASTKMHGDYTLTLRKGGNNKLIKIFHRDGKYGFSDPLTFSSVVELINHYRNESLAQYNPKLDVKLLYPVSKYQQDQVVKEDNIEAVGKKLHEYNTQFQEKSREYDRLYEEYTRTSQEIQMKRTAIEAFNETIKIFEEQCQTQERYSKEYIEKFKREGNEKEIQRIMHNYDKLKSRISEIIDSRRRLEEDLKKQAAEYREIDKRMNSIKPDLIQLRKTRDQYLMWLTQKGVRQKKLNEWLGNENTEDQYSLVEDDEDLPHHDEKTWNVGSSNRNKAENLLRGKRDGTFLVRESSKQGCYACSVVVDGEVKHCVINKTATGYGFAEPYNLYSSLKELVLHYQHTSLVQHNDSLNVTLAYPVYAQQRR
PI3K p110 beta/p85 alpha (Homo sapiens), sequence (P42338 whole entry partner): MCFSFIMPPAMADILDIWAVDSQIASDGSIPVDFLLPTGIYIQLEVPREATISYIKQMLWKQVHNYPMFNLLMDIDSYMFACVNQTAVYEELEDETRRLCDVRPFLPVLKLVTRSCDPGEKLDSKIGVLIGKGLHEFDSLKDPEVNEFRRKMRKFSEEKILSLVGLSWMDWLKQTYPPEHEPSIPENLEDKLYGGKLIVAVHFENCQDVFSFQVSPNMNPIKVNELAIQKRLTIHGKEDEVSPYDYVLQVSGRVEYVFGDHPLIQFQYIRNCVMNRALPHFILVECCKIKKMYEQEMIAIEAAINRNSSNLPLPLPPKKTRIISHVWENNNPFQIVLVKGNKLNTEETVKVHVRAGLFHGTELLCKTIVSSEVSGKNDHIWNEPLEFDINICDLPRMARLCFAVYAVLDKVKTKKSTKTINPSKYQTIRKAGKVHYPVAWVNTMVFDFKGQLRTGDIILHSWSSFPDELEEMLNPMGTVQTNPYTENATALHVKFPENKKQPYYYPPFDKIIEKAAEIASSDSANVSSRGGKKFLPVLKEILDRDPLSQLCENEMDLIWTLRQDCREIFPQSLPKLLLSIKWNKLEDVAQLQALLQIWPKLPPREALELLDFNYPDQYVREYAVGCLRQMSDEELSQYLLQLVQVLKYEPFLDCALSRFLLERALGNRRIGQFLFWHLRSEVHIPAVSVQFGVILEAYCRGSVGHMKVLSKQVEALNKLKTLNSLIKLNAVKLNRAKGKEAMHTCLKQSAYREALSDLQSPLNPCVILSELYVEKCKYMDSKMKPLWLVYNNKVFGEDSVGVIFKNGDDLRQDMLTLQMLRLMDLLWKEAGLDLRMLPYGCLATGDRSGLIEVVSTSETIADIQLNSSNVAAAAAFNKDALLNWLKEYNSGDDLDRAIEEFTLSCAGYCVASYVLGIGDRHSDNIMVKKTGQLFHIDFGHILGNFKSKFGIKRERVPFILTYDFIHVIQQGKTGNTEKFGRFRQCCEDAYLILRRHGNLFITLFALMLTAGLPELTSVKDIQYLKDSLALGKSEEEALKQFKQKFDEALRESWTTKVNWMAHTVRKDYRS
The target in assay [8] is Serine/threonine-protein kinase 17B (Homo sapiens) (UniProt O94768). Nature of the assay: Inhibition of recombinant human DRAK2 assessed as residual activity at 1 uM using KKRPQRRYSNVF as substrate at 120 mins in presence of [gamma-33ATP] by scintillation counting based radiometry assay relative to control.
Assay [9] has as its target Tyrosine-protein kinase Lck (Homo sapiens) (UniProt P06239). Nature of the assay: Inhibition of recombinant full length human LCK assessed as residual activity at 1 uM using KVEKIGEGTYGVVYK as substrate after 40 mins in presence of [gamma-33ATP] by scintillation counting based radiometry assay relative to control.
For assay [10], the target named is Platelet-derived growth factor receptor alpha (Homo sapiens) (UniProt P16234). Briefly: Inhibition of human PDGFRalpha (550 to end residues) assessed as residual activity at 1 uM poly(Glu, Tyr) 4:1 as substrate measured after 40 mins in presence of [gamma33P]ATP by scintillation counting method relative to control.
For assay [11], the species on record is Homo sapiens. Briefly: Inhibition of recombinant human MAPKAPK2 A399G mutant (46 to end residues) assessed as residual activity at 1 uM using KKLNRTLSVA as substrate incubated for 40 mins in presence of [gamma-33ATP by scintillation counting based radiometry assay relative to control.
The target of assay [12] is Focal adhesion kinase 1 (Homo sapiens) (UniProt Q05397). Briefly: Inhibition of recombinant human FAK (411 to 686 residues) assessed as residual activity at 1 uM using EEEEYEEEEEEYYIIEEEEEEYEEEEEEYYEEEEEEKKKK as substrate at 40 mins in presence of [gamma-33ATP] by scintillation counting based radiometry assay relative to control.
Focal adhesion kinase 1 (Homo sapiens), sequence (Q05397 2-1052 limits assumed): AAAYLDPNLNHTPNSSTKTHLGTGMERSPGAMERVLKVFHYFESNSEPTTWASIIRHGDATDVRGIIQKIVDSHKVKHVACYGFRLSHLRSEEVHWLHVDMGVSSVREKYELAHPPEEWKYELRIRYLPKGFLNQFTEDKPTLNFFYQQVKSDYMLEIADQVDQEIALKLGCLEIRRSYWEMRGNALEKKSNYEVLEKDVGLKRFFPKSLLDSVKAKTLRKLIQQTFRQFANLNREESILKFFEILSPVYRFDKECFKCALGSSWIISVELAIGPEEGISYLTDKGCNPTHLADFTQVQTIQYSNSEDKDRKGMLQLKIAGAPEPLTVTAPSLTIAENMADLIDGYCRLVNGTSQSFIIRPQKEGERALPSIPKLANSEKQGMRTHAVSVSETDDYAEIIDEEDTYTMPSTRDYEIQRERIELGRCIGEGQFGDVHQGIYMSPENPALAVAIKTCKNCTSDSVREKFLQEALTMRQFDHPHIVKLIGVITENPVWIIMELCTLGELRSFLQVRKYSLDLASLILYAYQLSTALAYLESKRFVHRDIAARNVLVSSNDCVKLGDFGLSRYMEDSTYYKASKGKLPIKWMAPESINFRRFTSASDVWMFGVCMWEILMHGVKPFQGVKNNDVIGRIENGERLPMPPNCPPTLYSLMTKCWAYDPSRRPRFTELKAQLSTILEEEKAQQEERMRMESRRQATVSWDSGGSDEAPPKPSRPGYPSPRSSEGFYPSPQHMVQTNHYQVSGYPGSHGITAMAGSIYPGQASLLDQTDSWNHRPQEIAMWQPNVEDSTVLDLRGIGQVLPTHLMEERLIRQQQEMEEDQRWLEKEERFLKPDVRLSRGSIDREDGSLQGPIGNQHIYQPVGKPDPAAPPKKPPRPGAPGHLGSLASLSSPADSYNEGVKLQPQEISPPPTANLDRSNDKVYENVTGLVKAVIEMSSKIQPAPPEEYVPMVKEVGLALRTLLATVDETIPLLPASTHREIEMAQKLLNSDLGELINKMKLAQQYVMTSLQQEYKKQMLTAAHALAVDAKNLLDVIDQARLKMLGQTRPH
The species entered for assay [13] is Homo sapiens. Briefly: Inhibition of recombinant human full length PI3K p110alpha/p65alpha assessed as residual activity at 1 uM assessed as residual activity at 1 uM using phosphatidylinositol-4, 5-bisphosphate as substrate incubated for 40 mins in presence of [gamma33P]ATP by scintillation counting based radiometry assay relative to control.
Assay [14] is filed under the species Homo sapiens. Briefly: Inhibition of recombinant human FLT4 V1128L/ H1146R double mutant (800 to end residues) assessed as residual activity at 1 uM using GGEEEEYFELVKKKK as substrate at 40 mins in presence of [gamma-33ATP] by scintillation counting based radiometry assay relative to control.
Assay [15] addresses Interleukin-1 receptor-associated kinase 1 (Homo sapiens) (UniProt P51617). Briefly: Inhibition of human IRAK1 (194 to end residues) assessed as residual activity at 1 uM using myelin basic protein as substrate after 40 mins by [gamma-33ATP] radiometric assay relative to control.
The target of assay [16] is Leucine-rich repeat serine/threonine-protein kinase 2 (Homo sapiens) (UniProt Q5S007). Nature of the assay: Inhibition of recombinant human LRRK2 (970 to end residues) assessed as residual activity at 1 uM using RLGRDKYKTLRQIRQ as substrate after 40 mins in presence of [gamma-33ATP] by scintillation counting based radiometry assay relative to control.
Assay [17] addresses CDK6/cyclin D3 (Homo sapiens) (UniProt P30281+Q00534). Briefly: Inhibition of recombinant full length human CDK6/cyclinD3 assessed as residual activity at 1 uM using histone H1 as substrate incubated for 40 mins in presence of [gamma-33ATP] by scintillation counting based radiometry assay relative to control. Format: protein-complex assay.
The test system of assay [18] is Receptor-type tyrosine-protein kinase FLT3 (Homo sapiens), P36888 [D835Y]. Briefly: Inhibition of recombinant human FLT3 D835Y mutant (564 to end residues) assessed as residual activity at 1 uM using EAIYAAPFAKKK as substrate at 40 mins in presence of [gamma-33ATP] by scintillation counting based radiometry assay relative to control.
Assay [19] deals with Mitogen-activated protein kinase 8 (Homo sapiens) (UniProt P45983). Briefly: Inhibition of human JNK1alpha1 assessed as residual activity at 1 uM using ATF2 as substrate after 40 mins by [gamma-33ATP] radiometric assay relative to control.
Assay [20] relates to Homeodomain-interacting protein kinase 2 (Homo sapiens), Q9H2X6 [UNDEFINED MUTATION]. Nature of the assay: Inhibition of human HIPK2 I471N mutant (165 to 564 residues) assessed as residual activity at 1 uM using myelin basic protein as substrate after 40 mins by [gamma-33ATP] radiometric assay relative to control.
For assay [21], the target named is Serine/threonine-protein kinase SBK1 (Homo sapiens) (UniProt Q52WX2). Briefly: Inhibition of recombinant full-length human SBK1 assessed as residual activity at 1 uM using KKLRRTLSVA as substrate measured after 120 mins in presence of [gamma33P]ATP by scintillation counting method relative to control.
Serine/threonine-protein kinase SBK1 (Homo sapiens), sequence (Q52WX2 whole entry): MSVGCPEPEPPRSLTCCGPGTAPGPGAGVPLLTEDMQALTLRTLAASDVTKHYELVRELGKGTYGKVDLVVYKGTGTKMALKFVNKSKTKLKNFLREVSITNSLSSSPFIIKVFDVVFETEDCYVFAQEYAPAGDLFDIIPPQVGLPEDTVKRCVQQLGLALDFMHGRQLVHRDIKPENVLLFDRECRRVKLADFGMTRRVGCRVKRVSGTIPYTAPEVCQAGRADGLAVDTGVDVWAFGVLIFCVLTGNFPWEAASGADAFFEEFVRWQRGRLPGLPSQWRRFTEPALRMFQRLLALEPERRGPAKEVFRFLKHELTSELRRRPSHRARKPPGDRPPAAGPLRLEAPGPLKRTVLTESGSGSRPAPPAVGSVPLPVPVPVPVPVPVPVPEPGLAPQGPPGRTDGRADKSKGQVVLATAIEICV
In assay [22] the target is Serine/threonine-protein kinase VRK1 (Homo sapiens) (UniProt Q99986). Nature of the assay: Inhibition of human VRK1 assessed as residual activity at 1 uM by radiometric method relative to control.
Serine/threonine-protein kinase VRK1 (Homo sapiens), sequence (Q99986 whole entry): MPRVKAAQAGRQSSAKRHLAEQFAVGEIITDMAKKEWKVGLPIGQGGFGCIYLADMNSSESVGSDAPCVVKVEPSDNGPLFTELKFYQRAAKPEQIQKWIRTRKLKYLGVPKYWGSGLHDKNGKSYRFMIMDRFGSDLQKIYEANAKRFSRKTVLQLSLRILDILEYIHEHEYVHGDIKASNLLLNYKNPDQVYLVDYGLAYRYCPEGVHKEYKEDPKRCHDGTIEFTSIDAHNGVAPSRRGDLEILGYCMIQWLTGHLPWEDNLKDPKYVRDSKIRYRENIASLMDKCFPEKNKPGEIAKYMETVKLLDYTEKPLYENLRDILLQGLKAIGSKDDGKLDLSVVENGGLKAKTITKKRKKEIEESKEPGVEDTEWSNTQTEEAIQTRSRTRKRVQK

SMILES strings stand for the structures.

Tyrosine-protein kinase Lck (Homo sapiens), sequence (P06239 2-509 limits assumed): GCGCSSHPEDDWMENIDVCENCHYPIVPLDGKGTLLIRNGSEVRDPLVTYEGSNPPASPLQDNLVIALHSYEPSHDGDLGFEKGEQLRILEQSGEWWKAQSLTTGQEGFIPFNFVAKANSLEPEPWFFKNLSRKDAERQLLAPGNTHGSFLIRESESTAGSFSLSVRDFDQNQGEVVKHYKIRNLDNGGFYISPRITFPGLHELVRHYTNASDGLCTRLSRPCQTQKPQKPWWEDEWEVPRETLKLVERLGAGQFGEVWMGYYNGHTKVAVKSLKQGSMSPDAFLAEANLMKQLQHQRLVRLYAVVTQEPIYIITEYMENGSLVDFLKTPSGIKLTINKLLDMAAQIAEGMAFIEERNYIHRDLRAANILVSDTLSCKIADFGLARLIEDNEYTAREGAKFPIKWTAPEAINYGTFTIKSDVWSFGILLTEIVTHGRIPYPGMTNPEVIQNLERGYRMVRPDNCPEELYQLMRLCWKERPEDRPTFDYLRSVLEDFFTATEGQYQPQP

On to `N=C1NC(=O)/C(=C\c2ccc(-c3cccc([N+](=O)[O-])c3)o2)S1`, for which the Activity in [1] stood at 103%; in [2], 92%; in assay [3], 101%; in assay [4] it was 92%; in assay [5], 99%; in [6], 98%. In addition, the Activity in assay [7] amounted to 99%; in assay [8], 59%; in [9], 89%; in [10], 104%; in [11] it was 103%; in [12], 105%. Besides, the Activity in [13] was 100%; in assay [14], 116%; in assay [15] it was 100%; in assay [16], 99%; in assay [17] it was 92%; in assay [18], 84%. Further, the Activity turned out to be 101% in assay [19], 1% in assay [20], 98% in assay [21] and 92% in assay [22].

On to `C=CCOC(=O)c1cc(-c2ccc(/C=C3/NC(=S)NC3=O)o2)ccc1Cl`, for which the Activity in assay [1] stood at 99%; in [2] it was 102%; in [3], 103%; in [4], 65%; in [5], 91%; in [6], 92%. In addition, the Activity in assay [7] came out at 97%; in assay [8], 80%; in assay [9] it was 86%; in assay [10], 92%; in [11] it was 106%; in [12], 105%. The Activity is 85% in [13]; 82% in assay [14]; 90% in [15]; 100% in [16]; 84% in assay [17]; 101% in assay [18]. For the same molecule, the Activity turned out to be 99% in assay [19], 5% in assay [20], 112% in assay [21] and 99% in assay [22].

The values are drawn from ChEMBL document CHEMBL4334438, “Discovery of novel glycogen synthase kinase-3α inhibitors: Structure-based virtual screening, preliminary SAR and biological evaluation for treatment of acute myeloid leukemia” (Eur J Med Chem, 2019).
